Measured values from ChEMBL document CHEMBL1201862, “PubChem BioAssay data set” (2004).
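Assay format: 96-well plates, 48-hour exposure. GI50 marks 50% less growth.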 Active and inactive are the calls of the source. No stated cut-off is given here; in the data, active = GI50 up to about 1.1 µM and inactive = higher.

Tests used:
Assay in all cases: NCI-60 cell line screen, 48 h
786-0 = system: 786-0
A498 = system: A498
A549 = system: A549
ACHN = system: ACHN
COLO 205 = system: COLO 205
DMS-114 = system: DMS-114
DMS-273 = system: DMS-273
EKVX = system: EKVX
HCC 2998 = system: HCC 2998
HCT-116 = system: HCT-116
HCT-15 = system: HCT-15
HL-60 = system: HL-60
HOP-18 = system: HOP-18
HOP-62 = system: HOP-62
HOP-92 = system: HOP-92
HT-29 = system: HT-29
IGROV-1 = system: IGROV-1
K562 = system: K562
KM-20L2 = system: KM-20L2
KM12 = system: KM12
LOX IMVI = system: LOX IMVI
LXFL 529 = system: LXFL 529
M14 = system: M14
M19-MEL = system: M19-MEL
MOLT-4 = system: MOLT-4
Malme-3M = system: Malme-3M
NCI-H226 = system: NCI-H226
NCI-H23 = system: NCI-H23
NCI-H522 = system: NCI-H522
OVCAR-3 = system: OVCAR-3
OVCAR-4 = system: OVCAR-4
OVCAR-5 = system: OVCAR-5
OVCAR-8 = system: OVCAR-8
RPMI-8226 = system: RPMI-8226
RXF 393 = system: RXF 393
SF-295 = system: SF-295
SF-539 = system: SF-539
SK-MEL-28 = system: SK-MEL-28
SK-MEL-2 = system: SK-MEL-2
SK-MEL-5 = system: SK-MEL-5
SK-OV-3 = system: SK-OV-3
SN12C = system: SN12C
SNB-19 = system: SNB-19
SNB-75 = system: SNB-75
SNB-78 = system: SNB-78
SR = system: SR
SW-620 = system: SW-620
TK-10 = system: TK-10
U-251 = system: U-251
UACC-257 = system: UACC-257
UACC-62 = system: UACC-62
CAKI-1 = system: CAKI-1
DLD-1 = system: DLD-1
NCI-H460 = system: NCI-H460
SF-268 = system: SF-268
UO-31 = system: UO-31

Measured: GI50

Cc1ccc2nc3c(C(=O)NCCN(C)C)cccc3nc2c1
inactive: 786-0 11.5 µM | A498 2.47 µM | A549 4.61 µM | ACHN 1.91 µM | COLO 205 2.59 µM | DMS-114 2.74 µM | DMS-273 2.84 µM | EKVX 5.65 µM | HCC 2998 6.05 µM | HCT-116 1.59 µM | HL-60 5.45 µM | HOP-18 > 27.1 µM | HOP-62 3.85 µM | HOP-92 2.38 µM | HT-29 2.32 µM | IGROV-1 7.03 µM | K562 2.47 µM | KM-20L2 3.53 µM | KM12 3.94 µM | LOX IMVI 1.82 µM | LXFL 529 7.38 µM | M14 5.12 µM | M19-MEL 2.44 µM | MOLT-4 1.64 µM | Malme-3M 2.47 µM | NCI-H226 2.59 µM | NCI-H23 4.26 µM | NCI-H522 8.81 µM | OVCAR-3 5.38 µM | OVCAR-4 4.69 µM | OVCAR-5 6.34 µM | OVCAR-8 3.48 µM | RPMI-8226 3.6 µM | RXF 393 3.56 µM | SF-295 5.22 µM | SF-539 4.2 µM | SK-MEL-28 4.7 µM | SK-MEL-2 2.76 µM | SK-MEL-5 4.6 µM | SK-OV-3 14.8 µM | SN12C 3.42 µM | SNB-19 5.96 µM | SNB-75 5.48 µM | SNB-78 7.31 µM | SW-620 1.92 µM | TK-10 3.73 µM | U-251 5.55 µM | UACC-257 3.8 µM | UACC-62 4.35 µM
2.9 µM: HCT-15
active: SR 1.01 µM

NC(=O)COc1ccc(Br)cc1Br
> 100 µM: HCT-15
inactive: 786-0 > 100 µM | A498 > 100 µM | A549 > 100 µM | ACHN > 100 µM | CAKI-1 > 100 µM | COLO 205 > 100 µM | DLD-1 > 100 µM | DMS-114 > 100 µM | DMS-273 > 100 µM | EKVX 29.2 µM | HCT-116 > 100 µM | HL-60 > 100 µM | HOP-18 > 100 µM | HOP-62 > 100 µM | HOP-92 > 100 µM | HT-29 > 100 µM | IGROV-1 > 100 µM | K562 > 100 µM | KM-20L2 > 100 µM | KM12 85.3 µM | LXFL 529 > 100 µM | M14 > 100 µM | M19-MEL > 100 µM | MOLT-4 > 100 µM | Malme-3M > 100 µM | NCI-H226 > 100 µM | NCI-H23 > 100 µM | NCI-H460 > 100 µM | NCI-H522 > 100 µM | OVCAR-3 > 100 µM | OVCAR-5 > 100 µM | OVCAR-8 > 100 µM | RPMI-8226 51.9 µM | SF-268 > 100 µM | SF-295 > 100 µM | SF-539 > 100 µM | SK-MEL-28 > 100 µM | SK-MEL-2 > 100 µM | SK-MEL-5 > 100 µM | SK-OV-3 > 100 µM | SN12C > 100 µM | SNB-19 > 100 µM | SNB-75 52.1 µM | SNB-78 > 100 µM | SR > 100 µM | SW-620 > 100 µM | U-251 > 100 µM | UACC-257 > 100 µM | UO-31 > 100 µM
